# From PubChem BioAssay (NCI)
# Values joined by “and” are separate entries in the source; they are usually repeats but may differ in a detail not shown here. Equal entries are not always repeated.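 Each compound was tested at five concentrations against cells in 96-well plates for 48 hours. GI50 marks 50% less growth. The concentration for full growth arrest is given as TGI.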
# Tested on: MDA-MB-468 breast
# Assay: DTP human tumour cell line panel, 48 h
Structure (SMILES),GI50,TGI
C[C@@H]1COCCN1c1cc(C2([S@@](C)(=N)=O)CC2)nc(-c2ccnc3[nH]ccc23)n1,2730 nM,25.6 µM
NC(=Nc1ccc(N)cc1)C(N)=Nc1ccc(N)cc1,> 100000 nM,> 100 µM
CN1CCN(Cc2ccc3c(NNC(=O)c4ccccc4)nc4cc(F)ccc4n23)CC1,237 nM,1.65 µM
COc1ccc(C2C=C(c3ccc(Cl)cc3)N=C3SC=C(C)N32)c(Br)c1 (centres undefined),1910 nM,6.13 µM
Cc1cnc(Nc2ccc(N3CCN(C)CC3)cc2)nc1Nc1ccc(Cl)c(NS(=O)(=O)C(C)(C)C)c1,153 nM,2.2 µM
Cc1cc(Nc2cc(N3CCN(C)CC3)nc(Sc3ccc(NC(=O)C4CC4)cc3)n2)n[nH]1,240 nM,> 10 µM
O=C(CC(=O)c1cccc(Cl)c1)c1cccc(Cl)c1,1770 nM,8.76 µM
CCOC(=O)c1c(NCC(=O)Nc2cccc([N+](=O)[O-])c2)sc2c1CCCC2,333 nM,1.43 µM
COc1cc(C2C3=C(COC3=O)N(CCO)c3cc4c(cc32)OCO4)cc(OC)c1O (centres undefined),819 nM,2.62 µM
N#CN1CC[C@H](C(=O)Nc2cc3cc(C(N)=O)ccc3cn2)C1,< 14.6 nM,0.0289 µM
CCCCCCCC(=O)OCC(=O)[C@]1(O)Cc2c(O)c3c(c(O)c2[C@@H](OC2CC(N)C(O)C(C)O2)C1)C(=O)c1c(OC)cccc1C3=O (some centres undefined),39.8 nM,0.301 µM
Cc1c(C(N)=O)sc2c1c(=O)n(Cc1ccccc1)c1nnc(-c3ccc(Br)cc3)n21,2040 nM,6.94 µM
O=C(/C=C/C12c3ccccc3C(c3ccccc31)C1C(=O)NC(=O)C12)c1ccc(Cl)cc1 (centres undefined),1700 nM,3.47 µM
Nc1nc(=O)n([C@@H]2CS[C@H](CO)O2)cc1F,> 100000 nM,> 100 µM
O=C(Nc1ccccc1O)c1ccc(NS(=O)(=O)c2cccc3cccnc23)cc1,679 nM,3.75 µM
CN1CCN(CCOc2cc(OC3CCOCC3)c3c(Nc4c(Cl)ccc5c4OCO5)ncnc3c2)CC1,773 nM and 548 nM,3.49 µM and 7.54 µM
COc1cc(NCCN=C(N)NC(N)=NC(C)C)c2ncccc2c1,162 nM,0.603 µM
CCOC(=O)c1ccc2c(c1)[n+](=O)c(C(C)=O)c(C(F)(F)F)n2[O-],1590 nM,3.29 µM
COc1cc(/C=C/c2cc(/C=C/c3ccc(O)c(OC)c3)n(C(=O)Nc3ccc(Cl)cc3)n2)ccc1O,310 nM,1.82 µM
O=C(C[P+](c1ccccc1)(c1ccccc1)c1ccccc1)C[P+](c1ccccc1)(c1ccccc1)c1ccccc1,165 nM,0.508 µM
Cn1cc(-c2nn3cc(-c4ccncc4)nc3s2)c2cc(Cl)ccc21,2190 nM,7.84 µM
Cc1cc(Cl)ccc1Nc1nc(C(F)(F)F)ccc1C(=O)N/N=C/c1ccccc1Cl,1880 nM,> 100 µM
O=C(NCCNc1nccc(-c2c(-c3cccc(O)c3)nc3sccn23)n1)c1ccccc1,3600 nM,28.7 µM

Structure (SMILES),GI50,TGI
COc1cccc(C2C3=C(COC3=O)N(CCO)c3cc4c(cc32)OCO4)c1 (centres undefined),131 nM,
Cc1ccc(-c2nc(-c3cn(C)c4ncccc34)cs2)cc1,2660 nM,9.92 µM
O=C(Nc1cc(Oc2cc(F)c(NC(=O)C3(C(=O)Nc4ccc(F)cc4)CC3)cc2F)ccn1)C1CC1,3170 nM,6.14 µM
Cc1ccc(-c2nc([P+](c3ccccc3)(c3ccccc3)c3ccccc3)c(Nc3ccccc3)o2)cc1,232 nM,0.719 µM
CCOC(=O)/C=C/C(=O)[C@H](CC(C)C)NC(=O)[C@H](Cc1ccccc1)NC(=O)OCc1ccccc1,2360 nM,5.07 µM
NC(=S)N=Nc1c(O)c2ccccc2c2ccccc12,44300 nM,> 100 µM
COc1cccc(/C(C)=N/NC(=O)CSc2nc3ccccc3c(=O)n2CCc2ccc(S(N)(=O)=O)cc2)c1,3160 nM,8.76 µM
CNS(=O)(=O)OCC1OC(n2cnc3c(N)ncnc32)C(O)C1O (centres undefined),28900 nM,> 100 µM
c1ccc([As]=[As]c2ccccc2)cc1 (centres undefined),541 nM,2.31 µM
CC(=O)c1cc(C(=O)c2ccc3c(c2)Sc2ccccc2N3)c2c(C)cccn12,175 nM,> 96 µM
C#COc1cccc(Nc2ncnc3cc(NC(=O)[C@H](C)Cl)ccc23)c1,11700 nM,61 µM
COc1ccc(Cn2cc3c(c2-c2ccccc2)CCc2cnoc2-3)cc1N,39 nM,0.385 µM
O=S(=O)(Nc1ccc(F)c(Cl)c1)c1ccc(-c2cnc(C3CC3)o2)cc1,98.2 nM,1.63 µM
ClCc1cccc(CSc2ncnc3c2ncn3Cc2cccc(CCl)c2)c1,1300 nM,2.85 µM
COc1cc2c(=O)n(CCN(C)C)c3c4cc5c(cc4ccc3c2cc1OC)OCO5,115 nM,0.303 µM
COc1ccc(/C=C\c2cc(OC)c(OC)c(OC)c2)cc1OCC(=O)Nc1ccc2nc(C)sc2c1,2390 nM,14 µM
Nc1nc(N)c2cc(Sc3cccc(C(F)(F)F)c3)ccc2n1,1020 nM,2.55 µM
CCOC(=O)c1cnn2c3ccccc3n(S(=O)(=O)c3ccc(OC)cc3)c12,324 nM,> 100 µM
CCS(=O)(=O)c1ccc(OC)c(Nc2ncc(-c3ccccc3Cl)o2)c1,6530 nM,19.6 µM
Cc1ccc(NCCN(C)C)c2c(=O)c3ccccc3sc12,1670 nM,3.26 µM
C=C1C(=O)O[C@H]2[C@H]1CC/C(COC(=O)NCCc1c[nH]c3ccc(Cl)cc13)=C\CC[C@@]1(C)O[C@@H]21,1650 nM,3.31 µM
COc1ccccc1NS(=O)(=O)c1ccc2oc(SC(C)C)nc2c1,2380 nM,17.6 µM
